{"source": "ChEMBL document CHEMBL5154675", "about": "“Design, Synthesis, and Biological Evaluation of 1-(Indolizin-3-yl)ethan-1-ones as CBP Bromodomain Inhibitors for the Treatment of Prostate Cancer” (J Med Chem, 2022)", "key": {"[1]": {"target": "Chromatin remodeling regulator CECR2 (Homo sapiens) (UniProt Q9BXF3)", "sequence (Q9BXF3 whole entry, looked up)": "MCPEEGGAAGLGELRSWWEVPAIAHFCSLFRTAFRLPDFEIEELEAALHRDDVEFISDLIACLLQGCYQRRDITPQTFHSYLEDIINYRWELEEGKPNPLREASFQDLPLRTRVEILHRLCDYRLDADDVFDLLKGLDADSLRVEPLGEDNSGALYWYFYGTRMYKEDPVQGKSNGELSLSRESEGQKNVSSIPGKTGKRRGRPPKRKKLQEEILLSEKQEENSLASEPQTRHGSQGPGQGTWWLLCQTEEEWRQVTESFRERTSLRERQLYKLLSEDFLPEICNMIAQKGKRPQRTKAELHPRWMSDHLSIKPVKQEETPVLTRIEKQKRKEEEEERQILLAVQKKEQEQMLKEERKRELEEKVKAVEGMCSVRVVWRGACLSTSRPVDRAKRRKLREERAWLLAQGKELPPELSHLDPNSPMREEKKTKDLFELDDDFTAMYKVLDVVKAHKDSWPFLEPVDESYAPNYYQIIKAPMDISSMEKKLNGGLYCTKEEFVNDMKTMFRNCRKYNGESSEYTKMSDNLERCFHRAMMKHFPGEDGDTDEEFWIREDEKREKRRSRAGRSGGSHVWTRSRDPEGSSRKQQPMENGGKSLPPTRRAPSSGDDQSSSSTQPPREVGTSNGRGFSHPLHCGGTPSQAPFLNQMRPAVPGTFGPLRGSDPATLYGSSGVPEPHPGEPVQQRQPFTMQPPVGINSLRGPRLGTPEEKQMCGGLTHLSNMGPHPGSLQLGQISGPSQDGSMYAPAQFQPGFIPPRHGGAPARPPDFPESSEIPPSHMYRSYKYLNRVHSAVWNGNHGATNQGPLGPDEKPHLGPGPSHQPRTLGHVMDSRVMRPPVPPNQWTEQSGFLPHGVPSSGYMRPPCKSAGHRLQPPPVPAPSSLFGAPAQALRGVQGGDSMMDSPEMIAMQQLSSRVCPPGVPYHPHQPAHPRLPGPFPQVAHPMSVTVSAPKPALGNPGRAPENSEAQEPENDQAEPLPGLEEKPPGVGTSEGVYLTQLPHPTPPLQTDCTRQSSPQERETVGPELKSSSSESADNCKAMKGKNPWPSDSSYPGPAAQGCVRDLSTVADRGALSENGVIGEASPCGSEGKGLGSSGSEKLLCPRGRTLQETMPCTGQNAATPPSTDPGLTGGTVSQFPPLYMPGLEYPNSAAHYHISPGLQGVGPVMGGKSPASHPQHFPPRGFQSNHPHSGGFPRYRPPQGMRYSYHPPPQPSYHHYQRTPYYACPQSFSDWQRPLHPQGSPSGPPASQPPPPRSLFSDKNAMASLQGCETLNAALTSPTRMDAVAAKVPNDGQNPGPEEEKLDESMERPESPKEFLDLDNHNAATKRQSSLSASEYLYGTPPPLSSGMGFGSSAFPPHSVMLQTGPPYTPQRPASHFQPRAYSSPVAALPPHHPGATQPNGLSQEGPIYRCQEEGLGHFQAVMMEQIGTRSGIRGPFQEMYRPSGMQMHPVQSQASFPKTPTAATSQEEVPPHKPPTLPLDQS", "settings": "dose 200.0 µM, time 30.0 min"}, "[2]": {"target": "T1, Bromodomain-containing protein 3 (Homo sapiens, UniProt Q15059)", "T1 sequence (Q15059 2-726 limits assumed)": "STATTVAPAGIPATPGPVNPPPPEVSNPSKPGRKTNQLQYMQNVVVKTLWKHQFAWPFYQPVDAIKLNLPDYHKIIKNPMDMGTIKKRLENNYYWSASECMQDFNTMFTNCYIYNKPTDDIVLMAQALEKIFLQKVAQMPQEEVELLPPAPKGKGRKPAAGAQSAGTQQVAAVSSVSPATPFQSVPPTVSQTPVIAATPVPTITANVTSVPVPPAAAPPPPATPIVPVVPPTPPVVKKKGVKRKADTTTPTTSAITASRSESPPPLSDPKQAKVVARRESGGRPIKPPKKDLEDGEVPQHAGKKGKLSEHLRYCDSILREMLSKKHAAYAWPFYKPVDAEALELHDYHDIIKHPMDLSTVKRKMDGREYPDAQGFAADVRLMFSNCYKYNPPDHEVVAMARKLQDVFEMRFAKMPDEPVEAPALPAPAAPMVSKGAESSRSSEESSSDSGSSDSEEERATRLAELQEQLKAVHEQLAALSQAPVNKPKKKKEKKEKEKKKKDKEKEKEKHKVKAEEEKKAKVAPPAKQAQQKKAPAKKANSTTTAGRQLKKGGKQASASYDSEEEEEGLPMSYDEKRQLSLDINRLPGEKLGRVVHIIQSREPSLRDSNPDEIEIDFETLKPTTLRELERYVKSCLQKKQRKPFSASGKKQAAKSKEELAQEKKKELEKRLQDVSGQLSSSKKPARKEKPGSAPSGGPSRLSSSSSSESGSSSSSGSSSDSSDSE", "settings": "dose 200.0 µM, time 30.0 min"}, "[3]": {"test": "Half life in Sprague-Dawley rat at 5 mg/kg, iv administered as single dose measured up to 24 hrs", "format": "ADME, organism-based", "settings": "Sprague-Dawley, in vivo"}, "[4]": {"target": "T1, Bromodomain-containing protein 3", "settings": "dose 200.0 µM, time 30.0 min", "remark": "listed apart in the source"}, "[5]": {"target": "Histone acetyltransferase p300 (Homo sapiens) (UniProt Q09472)", "settings": "dose 200.0 µM, time 30.0 min"}, "[6]": {"test": "Hepatic clearance in rat liver microsomes at 1 uM incubated for 45 mins in presence of NADPH by LC-MS/MS analysis", "format": "ADME, Microsome"}, "[7]": {"test": "Cmax in Sprague-Dawley rat at 5 mg/kg, iv administered as single dose measured up to 24 hrs", "format": "ADME, organism-based", "design": "time < 24 hrs, dose 5 mg/kg, route iv", "settings": "in vivo"}, "[8]": {"target": "T2, Bromodomain-containing protein 2 (Homo sapiens, UniProt P25440)", "test": "Binding affinity to His6-tagged human BRD2 bromodomain-1 (77 to 194 residues) expressed in Escherichia coli BL21 (DE3) assessed as dissociation constant by ITC analysis"}, "[9]": {"target": "T3, CREB-binding protein (Homo sapiens, UniProt Q92793)", "test": "Binding affinity to His6-tagged human CBP bromodomain (1081 to 1197 residues) expressed in Escherichia coli BL21 (DE3) assessed as dissociation constant by ITC analysis"}, "[10]": {"test_system": "LNCaP C4-2B", "test": "Inhibition of colony formation in human LNCaP C4-2B cells at 1 to 4 uM incubated for 14 days by crystal violet staining based assay", "format": "functional, cell-based", "settings": "dose 1-4 µM, time 14.0 day"}, "[11]": {"target": "T2, Bromodomain-containing protein 2", "settings": "dose 200.0 µM, time 30.0 min"}, "[12]": {"test_system": "CWR22R", "test": "Antitumor activity against human 22Rv1 cells xenografted in NOD SCID mouse assessed as tumor growth inhibition at 40 mg/kg, ip administered once daily for 21 days and measured every other day relative to control", "format": "functional", "settings": "22Rv1, 504 h, time 21 day, read-out: TGI"}, "[13]": {"test": "Cmax in Sprague-Dawley rat at 25 mg/kg, po measured up to 24 hrs", "format": "ADME, organism-based", "design": "dose 25 mg/kg, time < 24 hrs, route po", "settings": "in vivo"}, "[14]": {"test_system": "LNCaP", "test": "Antiproliferative activity against human LNCaP cells assessed as cell growth inhibition by Celltiter-Glo assay", "format": "functional, cell-based"}, "[15]": {"target": "SWI/SNF-related matrix-associated actin-dependent regulator of chromatin subfamily A member 2 (Homo sapiens) (UniProt P51531)", "sequence (P51531 whole entry)": "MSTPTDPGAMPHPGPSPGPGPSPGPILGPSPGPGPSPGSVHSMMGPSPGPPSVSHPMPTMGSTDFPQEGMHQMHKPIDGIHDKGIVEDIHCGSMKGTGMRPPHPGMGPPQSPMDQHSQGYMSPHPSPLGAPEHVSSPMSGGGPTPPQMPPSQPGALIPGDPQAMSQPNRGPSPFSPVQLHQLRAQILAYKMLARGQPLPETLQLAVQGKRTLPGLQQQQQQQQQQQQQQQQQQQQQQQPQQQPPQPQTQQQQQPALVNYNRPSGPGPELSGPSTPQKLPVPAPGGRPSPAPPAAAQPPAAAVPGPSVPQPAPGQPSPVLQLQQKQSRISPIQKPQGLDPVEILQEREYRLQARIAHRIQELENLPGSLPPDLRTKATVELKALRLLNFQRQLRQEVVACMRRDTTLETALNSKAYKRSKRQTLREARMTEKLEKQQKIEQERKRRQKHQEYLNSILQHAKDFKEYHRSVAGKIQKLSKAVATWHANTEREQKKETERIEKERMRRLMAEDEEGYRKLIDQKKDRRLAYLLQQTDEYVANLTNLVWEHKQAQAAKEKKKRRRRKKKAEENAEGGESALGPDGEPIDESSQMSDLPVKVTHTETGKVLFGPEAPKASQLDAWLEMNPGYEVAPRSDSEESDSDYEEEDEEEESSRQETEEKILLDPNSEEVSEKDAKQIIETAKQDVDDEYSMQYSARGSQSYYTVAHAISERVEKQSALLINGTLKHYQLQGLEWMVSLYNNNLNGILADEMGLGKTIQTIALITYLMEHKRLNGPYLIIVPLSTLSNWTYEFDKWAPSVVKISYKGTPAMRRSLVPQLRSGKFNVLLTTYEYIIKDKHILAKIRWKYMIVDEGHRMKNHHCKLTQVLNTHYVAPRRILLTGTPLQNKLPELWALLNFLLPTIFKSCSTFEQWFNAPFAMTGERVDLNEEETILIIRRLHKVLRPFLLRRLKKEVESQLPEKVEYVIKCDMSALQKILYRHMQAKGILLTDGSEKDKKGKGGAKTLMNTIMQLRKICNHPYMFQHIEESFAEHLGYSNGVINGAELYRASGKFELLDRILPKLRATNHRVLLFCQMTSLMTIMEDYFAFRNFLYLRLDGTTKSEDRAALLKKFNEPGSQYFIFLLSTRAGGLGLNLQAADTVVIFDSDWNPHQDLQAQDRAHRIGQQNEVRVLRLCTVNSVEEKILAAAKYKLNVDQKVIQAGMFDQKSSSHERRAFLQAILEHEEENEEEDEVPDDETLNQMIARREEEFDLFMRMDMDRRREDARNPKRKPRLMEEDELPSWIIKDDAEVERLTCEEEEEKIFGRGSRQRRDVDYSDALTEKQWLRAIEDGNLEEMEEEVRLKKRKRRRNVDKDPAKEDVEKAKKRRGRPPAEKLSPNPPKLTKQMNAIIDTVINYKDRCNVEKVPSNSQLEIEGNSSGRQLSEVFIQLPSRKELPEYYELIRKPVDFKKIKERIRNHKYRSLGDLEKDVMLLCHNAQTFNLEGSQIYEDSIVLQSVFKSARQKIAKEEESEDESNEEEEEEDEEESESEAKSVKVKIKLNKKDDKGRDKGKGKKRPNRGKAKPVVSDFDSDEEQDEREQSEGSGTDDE", "settings": "dose 200.0 µM, time 30.0 min"}, "[16]": {"test_system": "CWR22R", "test": "Suppression of full length Androgen receptor gene expression in human 22Rv1 cells incubated for 48 hrs by SYBR green dye-based qRT-PCR analysis", "format": "functional, cell-based", "settings": "dose 0-20 µM, DDE = dose-dependent effect"}, "[17]": {"test": "Apparent permeability across apical to basolateral side in human Caco-2 cells assessed as drug recovery at 10 uM measured after 2 hrs by LC-MS/MS analysis", "format": "ADME, cell-based", "settings": "read-out: Drug recovery"}, "[18]": {"test": "in vitro", "settings": "rat, liver microsomes", "description": "Hepatic extraction ratio in rat liver microsomes at 1 uM incubated for 45 mins in presence of NADPH by LC-MS/MS analysis"}, "[19]": {"target": "T3, CREB-binding protein", "settings": "dose 200.0 µM, time 30.0 min"}, "[20]": {"test": "Apparent permeability across basolateral to apical side in human Caco-2 cells at 10 uM measured after 2 hrs by LC-MS/MS analysis", "format": "ADME, cell-based"}, "[21]": {"test": "Intrinsic clearance in rat liver microsomes at 1 uM incubated for 45 mins in presence of NADPH by LC-MS/MS analysis", "format": "ADME, Microsome", "settings": "read-out: CLH"}, "[22]": {"test": "Apparent permeability across apical to basolateral side in human Caco-2 cells at 10 uM measured after 2 hrs by LC-MS/MS analysis", "format": "ADME, cell-based"}, "[23]": {"test_system": "CWR22R", "test": "Antimigratory activity against human 22Rv1 cells assessed as reduction in cell migration at 5 uM incubated for 48 hrs by bright-field microscopy based wound healing assay relative to control", "format": "functional", "design": "scale not given: the % may be the effect or the level left"}, "[24]": {"test": "Toxicity in NOD SCID mouse xenografted with human 22Rv1 cells assessed as body weight loss at 40 mg/kg, ip administered once daily for 21 days and measured every other day", "format": "organism-based, CWR22R", "settings": "in vivo, 504 h, time 21 day"}, "[25]": {"target": "Histone acetyltransferase KAT2B (Homo sapiens) (UniProt Q92831)", "sequence (Q92831 whole entry, looked up)": "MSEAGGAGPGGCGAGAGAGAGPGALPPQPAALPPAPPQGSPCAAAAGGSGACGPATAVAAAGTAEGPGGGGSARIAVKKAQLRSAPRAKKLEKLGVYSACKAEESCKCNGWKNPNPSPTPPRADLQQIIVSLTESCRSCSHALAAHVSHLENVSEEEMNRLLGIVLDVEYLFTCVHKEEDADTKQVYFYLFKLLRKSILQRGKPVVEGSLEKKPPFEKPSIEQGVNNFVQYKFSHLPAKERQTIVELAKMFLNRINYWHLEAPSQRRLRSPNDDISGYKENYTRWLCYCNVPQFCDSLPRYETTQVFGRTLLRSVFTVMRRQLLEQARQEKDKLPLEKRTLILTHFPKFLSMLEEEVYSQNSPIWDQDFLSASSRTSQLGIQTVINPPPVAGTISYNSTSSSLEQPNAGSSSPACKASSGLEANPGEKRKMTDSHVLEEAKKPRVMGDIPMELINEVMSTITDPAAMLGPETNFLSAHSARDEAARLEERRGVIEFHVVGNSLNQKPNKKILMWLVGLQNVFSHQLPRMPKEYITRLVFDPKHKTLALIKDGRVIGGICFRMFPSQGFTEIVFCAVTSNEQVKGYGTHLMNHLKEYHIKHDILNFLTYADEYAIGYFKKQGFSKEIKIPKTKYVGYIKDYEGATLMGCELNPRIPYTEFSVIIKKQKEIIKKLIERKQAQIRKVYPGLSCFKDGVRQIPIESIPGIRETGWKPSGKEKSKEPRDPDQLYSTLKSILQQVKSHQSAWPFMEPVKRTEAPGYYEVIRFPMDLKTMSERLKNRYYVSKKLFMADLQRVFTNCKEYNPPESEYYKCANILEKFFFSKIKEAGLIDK", "settings": "dose 200.0 µM, time 30.0 min"}, "[26]": {"target": "T3, CREB-binding protein", "test": "Inhibition of His6-tagged human CBP bromodomain (1081 to 1197 residues) expressed in Escherichia coli BL21 (DE3) incubated for 30 mins by HTRF assay"}, "[27]": {"test": "Hepatic clearance in human liver microsomes at 1 uM incubated for 45 mins in presence of NADPH by LC-MS/MS analysis", "format": "ADME, Microsome", "settings": "read-out: CLH"}, "[28]": {"target": "Bromodomain-containing protein 4 (Homo sapiens, UniProt O60885)", "settings": "dose 200.0 µM, time 30.0 min"}, "[29]": {"target": "T2, Bromodomain-containing protein 2", "settings": "dose 200.0 µM, time 30.0 min", "remark": "listed apart in the source"}, "[30]": {"test_system": "CWR22R", "test": "Antitumor activity against human 22Rv1 cells xenografted in NOD SCID mouse assessed as tumor growth inhibition at 40 mg/kg, po administered 5 times per week via oral gavage for 14 days and measured every other day relative to control", "format": "functional", "settings": "22Rv1, 336 h, time 14 day, read-out: TGI"}, "[31]": {"test_system": "CWR22R", "test": "Suppression of Androgen receptor variants gene expression in human 22Rv1 cells incubated for 48 hrs by SYBR green dye-based qRT-PCR analysis", "format": "functional, cell-based", "settings": "dose 0-20 µM, DDE = dose-dependent effect"}, "[32]": {"test": "Half life in Sprague-Dawley rat at 25 mg/kg, po measured up to 24 hrs", "format": "ADME, organism-based", "settings": "in vivo"}, "[33]": {"test_system": "LNCaP C4-2B", "test": "Induction of apoptosis in human LNCaP C4-2B cells assessed as increase in apoptotic cells at 10 uM measured after 48 hrs by Annexin V-FITC and propidium iodide staining based flow cytometry (Rvb= 1%)", "format": "functional"}}, "note": "Calls of active or inactive are those of the source. No cut-off for these calls is given here.", "data": [{"smiles": "COc1ccn2c(C(C)=O)cc(C(=O)Nc3cc(C(C)O)cc(-c4cnn(C5CC5)c4)c3F)c2c1", "note": "(stereo not drawn)", "values": [{"measurement": "ΔTm", "setting": "[1]", "value": 0, "unit": "°C"}, {"measurement": "ΔTm", "setting": "[2]", "value": -2.5, "unit": "°C"}, {"measurement": "half-life", "setting": "[3]", "value": 0.61, "unit": "h"}, {"measurement": "ΔTm", "setting": "[4]", "value": -1.3, "unit": "°C"}, {"measurement": "ΔTm", "setting": "[5]", "value": 12, "unit": "°C"}, {"measurement": "CLhep predicted at 1 µM", "setting": "[6]", "value": 27.3, "unit": "mL/min/kg"}, {"measurement": "Cmax", "setting": "[7]", "value": 8110, "unit": "ng/mL"}, {"measurement": "Kd", "setting": "[8]", "value": 840, "unit": "nM"}, {"measurement": "Kd", "setting": "[9]", "value": 58, "unit": "nM"}, {"measurement": "inhibition", "setting": "[10]", "value": "Active"}, {"measurement": "ΔTm", "setting": "[11]", "value": 1, "unit": "°C"}, {"measurement": "inhibition in vivo at 40 mg/kg", "setting": "[12]", "value": 88, "unit": "%"}, {"measurement": "Cmax", "setting": "[13]", "value": 1570, "unit": "ng/mL"}, {"measurement": "IC50", "setting": "[14]", "value": 590, "unit": "nM"}, {"measurement": "ΔTm", "setting": "[15]", "value": -0.5, "unit": "°C"}, {"measurement": "Activity", "setting": "[16]", "value": "Dde"}, {"measurement": "recovery at 2 h, 10 µM", "setting": "[17]", "value": 41.2, "unit": "%"}, {"measurement": "hepatic extraction ratio at 0.75 h, 1 µM", "setting": "[18]", "value": 0.495}, {"measurement": "ΔTm", "setting": "[19]", "value": 11.5, "unit": "°C"}, {"measurement": "Papp B→A at 2 h, 10 µM", "setting": "[20]", "value": 11.8, "unit": "×10⁻⁶ cm/s"}, {"measurement": "CLint scaled at 1 µM", "setting": "[21]", "value": 54.1, "unit": "mL/min/kg"}, {"measurement": "Papp A→B at 2 h, 10 µM", "setting": "[22]", "value": 6.68, "unit": "×10⁻⁶ cm/s"}, {"measurement": "Activity", "setting": "[23]", "value": 60, "unit": "%"}, {"measurement": "Activity", "setting": "[24]", "value": "Non-Toxic"}, {"measurement": "ΔTm", "setting": "[25]", "value": -0.6, "unit": "°C"}, {"measurement": "IC50", "setting": "[26]", "value": 4.21, "unit": "nM"}, {"measurement": "CLint scaled at 1 µM", "setting": "[27]", "value": 16.5, "unit": "mL/min/kg"}, {"measurement": "ΔTm", "setting": "[28]", "value": -1.5, "unit": "°C"}, {"measurement": "ΔTm", "setting": "[29]", "value": -0.8, "unit": "°C"}, {"measurement": "inhibition in vivo at 40 mg/kg", "setting": "[30]", "value": 78, "unit": "%"}, {"measurement": "Activity", "setting": "[31]", "value": "Dde"}, {"measurement": "half-life", "setting": "[32]", "value": 1.66, "unit": "h"}, {"measurement": "Activity", "setting": "[33]", "value": 10.39, "unit": "%"}]}]}
